In PubChem BioAssay (NCI):
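Following 48 hours of exposure in 96-well plates, responses at five concentrations were used to interpolate endpoints linearly. At the TGI there is no net growth.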

What was measured:
Assay in all cases: NCI anticancer screen, dose series, 48 h
U251 CNS = test system: U251 CNS
LOX IMVI melanoma = test system: LOX IMVI melanoma
SF-268 CNS = test system: SF-268 CNS
LXFL 529 NSCLC = test system: LXFL 529 NSCLC
XF 498 CNS = test system: XF 498 CNS
SF-295 CNS = test system: SF-295 CNS
DLD-1 colon = test system: DLD-1 colon
SF-539 CNS = test system: SF-539 CNS
CAKI-1 renal = test system: CAKI-1 renal
DMS 273 small cell lung = test system: DMS 273 small cell lung
SNB-19 CNS = test system: SNB-19 CNS
HOP-92 NSCLC = test system: HOP-92 NSCLC
HT29 colon = test system: HT29 colon
KM20L2 colon = test system: KM20L2 colon
ACHN renal = test system: ACHN renal
786-0 renal = test system: 786-0 renal
SNB-75 CNS = test system: SNB-75 CNS
M14 melanoma = test system: M14 melanoma
OVCAR-4 ovarian = test system: OVCAR-4 ovarian
SW-620 colon = test system: SW-620 colon
IGROV1 ovarian = test system: IGROV1 ovarian
HCT-116 colon = test system: HCT-116 colon
OVCAR-5 ovarian = test system: OVCAR-5 ovarian
COLO 205 colon = test system: COLO 205 colon
MALME-3M melanoma = test system: MALME-3M melanoma
NCI-H226 lung = test system: NCI-H226 lung
HOP-62 NSCLC = test system: HOP-62 NSCLC
RPMI-8226 leukemia = test system: RPMI-8226 leukemia
SR leukemia = test system: SR leukemia
HCC-2998 colon = test system: HCC-2998 colon
OVCAR-3 ovarian = test system: OVCAR-3 ovarian
NCI-H460 lung = test system: NCI-H460 lung
NCI-H522 lung = test system: NCI-H522 lung
M19-MEL melanoma = test system: M19-MEL melanoma
SK-MEL-28 melanoma = test system: SK-MEL-28 melanoma
UO-31 renal = test system: UO-31 renal
HCT-15 colon = test system: HCT-15 colon
UACC-257 melanoma = test system: UACC-257 melanoma
OVCAR-8 ovarian = test system: OVCAR-8 ovarian
RXF 393 renal = test system: RXF 393 renal
TK-10 renal = test system: TK-10 renal
SN12C renal = test system: SN12C renal
K-562 leukemia = test system: K-562 leukemia
MOLT-4 leukemia = test system: MOLT-4 leukemia
A549 NSCLC = test system: A549 NSCLC
NCI-H23 lung = test system: NCI-H23 lung
HL-60(TB) leukemia = test system: HL-60(TB) leukemia
SK-OV-3 ovarian = test system: SK-OV-3 ovarian
DMS 114 small cell lung = test system: DMS 114 small cell lung
UACC-62 melanoma = test system: UACC-62 melanoma
KM12 colon = test system: KM12 colon
SNB-78 CNS = test system: SNB-78 CNS
HOP-18 NSCLC = test system: HOP-18 NSCLC
EKVX NSCLC = test system: EKVX NSCLC
SK-MEL-2 melanoma = test system: SK-MEL-2 melanoma
SK-MEL-5 melanoma = test system: SK-MEL-5 melanoma
CCRF-CEM leukemia = test system: CCRF-CEM leukemia
MDA-N = test system: MDA-N
NCI/ADR-RES ovarian = test system: NCI/ADR-RES ovarian
MDA-MB-231 breast = test system: MDA-MB-231 breast
DU-145 prostate = test system: DU-145 prostate
T-47D breast = test system: T-47D breast
BT-549 breast = test system: BT-549 breast
HS 578T breast = test system: HS 578T breast
PC-3 prostate = test system: PC-3 prostate
MDA-MB-435 = test system: MDA-MB-435
A498 renal = test system: A498 renal
MCF7 breast = test system: MCF7 breast

Measured: TGI

CN(C)CC(/C(Cc1ccccc1)=N\NC(=S)NN)c1ccccc1 (configuration not stated)
not listed: HOP-18 NSCLC | EKVX NSCLC | SK-MEL-2 melanoma | SK-MEL-5 melanoma | CCRF-CEM leukemia | MDA-N | NCI/ADR-RES ovarian | MDA-MB-231 breast | DU-145 prostate | T-47D breast | BT-549 breast | HS 578T breast | PC-3 prostate | MDA-MB-435 | A498 renal | MCF7 breast
> 100 µM: all other assays above

Nc1nc2c(ncn2CCCC(c2ccccc2)P(=O)(O)O)c(=O)[nH]1 (configuration not stated)
not listed: XF 498 CNS | OVCAR-4 ovarian | NCI-H226 lung | SR leukemia | RXF 393 renal | MDA-N | NCI/ADR-RES ovarian | MDA-MB-231 breast | DU-145 prostate | T-47D breast | BT-549 breast | HS 578T breast | PC-3 prostate | MDA-MB-435 | A498 renal | MCF7 breast
> 100 µM: all other assays above

OC1COC(OCc2ccccc2)C(O)C1O (configuration not stated)
not listed: LXFL 529 NSCLC | XF 498 CNS | DLD-1 colon | DMS 273 small cell lung | KM20L2 colon | SNB-75 CNS | M19-MEL melanoma | DMS 114 small cell lung | SNB-78 CNS | HOP-18 NSCLC
> 100 µM: all other assays above
